Reference: the Deep4Chem optical property database

Assay: solvent given as SMILES

`CC(C)(C)c1ccc(-c2cc(-c3ccc(-c4cc(-c5ccc(C(C)(C)C)cc5)c(C(=O)NCc5ccccc5)s4)s3)sc2C(=O)NCc2ccccc2)cc1` showed an absorption maximum (in ClCCl) of 394 nm.
With `Fc1ccc2cc3cccc[n+]3cc2c1` the absorption maximum (in O) was 400 nm.
For `CCCC1(CCC)c2cc(-c3ccc(C(C)(C)C)cc3)ccc2-c2ccc(-c3ccc4c(c3)C(CCC)(CCC)c3cc(-c5ccc6c(c5)C(CCC)(CCC)c5cc(-c7ccc8c(c7)C(CCC)(CCC)c7cc(-c9ccc(C(C)(C)C)cc9)ccc7-8)ccc5-6)ccc3-4)cc21`, the absorption maximum (in C1CCCCC1) was 366 nm.
Compound `COc1cc(-c2nnc(-c3ccc4ccc5cccc6ccc3c4c56)o2)cc(OC)c1OC` has an absorption maximum (in C1CCOC1) of 393 nm, an absorption maximum (in CC1CCCCC1) of 392 nm and an absorption maximum (in CC#N) of 391 nm. It also gave an absorption maximum (in CCCCCC) of 392 nm, an absorption maximum (in Cc1ccccc1) of 396 nm and an absorption maximum (in ClC(Cl)Cl) of 396 nm.
Compound `C(=N\c1ccc(-c2cn3nc(-c4cccs4)sc3n2)cc1)/c1ccc2ccc3cccc4ccc1c2c34` has an absorption maximum (in ClC(Cl)Cl) of 403 nm.
`C(=C\c1ccncn1)/c1ccc(-c2ccc(N(c3ccccc3)c3ccccc3)cc2)cc1` gave an absorption maximum (in C1CCOC1) of 381 nm, an absorption maximum (in CC#N) of 381 nm and an absorption maximum (in CCCCCCC) of 373 nm. It also gave an absorption maximum (in CS(C)=O) of 393 nm.
`CC(C)(C)c1ccc(-c2cc3c(-c4ccc(C(C)(C)C)cc4)c4cccc5c(-c6ccc(C(C)(C)C)cc6)cc6c(-c7ccc(C(C)(C)C)cc7)c7cccc2c7c3c6c54)cc1` showed an absorption maximum (in ClCCl) of 456 nm.
`CCCCCCCCCCCCCCCC[n+]1ccc(/C=C/c2ccc(N(C)C)cc2)cc1` gave an absorption maximum (in C1COCCO1) of 463 nm, an absorption maximum (in CC(C)=O) of 477 nm and an absorption maximum (in CC(C)O) of 481.2 nm. For the same compound, the absorption maximum (in CCCCCC) was 454.6 nm, the absorption maximum (in CCCCO) was 487.1 nm and the absorption maximum (in CCCO) was 485.6 nm. The absorption maximum (in CCO) was 484.9 nm, the absorption maximum (in CN(C)C=O) was 475.3 nm and the absorption maximum (in CO) was 480.2 nm. For the same compound, the absorption maximum (in CS(C)=O) was 479 nm, the absorption maximum (in Cc1ccccc1) was 474.8 nm and the absorption maximum (in ClC(Cl)(Cl)Cl) was 467.2 nm. It also gave an absorption maximum (in ClC(Cl)Cl) of 493 nm, an absorption maximum (in ClCCl) of 515.2 nm and an absorption maximum (in c1ccccc1) of 476 nm.
In the case of `CCCCCOc1cc2oc(=O)c3c4ccc(N(c5ccccc5)c5ccccc5)cc4c4ccc5cccc6c(c1)c2c3c4c56`, the absorption maximum (in C1CCOC1) is reported as 476 nm.
For `CC[N+]1(CC)CN2C(=N1)C(C(=O)O)=Cc1ccc(C)cc12`, the absorption maximum (in O) was 370 nm.
`COc1ccc(C#Cc2ncc(-c3ccccc3)o2)cc1OC` showed an absorption maximum (in ClCCl) of 330 nm.
Work on `CC[N+](CC)=c1ccc2c(-c3ccccc3C(=O)O)c3c(=O)oc4c5c6c(cc4c3oc-2c1)CCCN6CCC5` yielded an absorption maximum (in CCO) of 612 nm, an absorption maximum (in ClC(Cl)Cl) of 623 nm and an absorption maximum (in O) of 612 nm.
Compound `CC(C)[Si]1(C(C)C)c2cc(C=C(C#N)C#N)ccc2-c2ccc(N(c3ccccc3)c3ccccc3)cc21` has an absorption maximum (in C1CCCCC1) of 484 nm, an absorption maximum (in CC#N) of 461 nm and an absorption maximum (in CCO) of 467 nm. The absorption maximum (in CCOCC) was 467 nm, the absorption maximum (in CS(C)=O) was 466 nm and the absorption maximum (in ClCCl) was 481 nm. It also gave an absorption maximum (in c1ccccc1) of 477 nm.
`N#CC(C#N)=C(c1ccc(-n2ccc3ccccc32)cc1)c1ccc(-n2ccc3ccccc32)cc1` showed an absorption maximum (in Cc1ccccc1) of 400 nm.
In the case of `O=C1c2cc(-c3ccccc3)ccc2-c2ccc(-c3ccccc3)cc21`, the absorption maximum (in C1CCOC1) is reported as 337 nm.
Work on `CCOC(=O)c1sc(-c2ccc(-c3cc(C4CC4)c(C(=O)OCC)s3)s2)cc1C1CC1` yielded an absorption maximum (in ClCCl) of 395 nm.
Work on `CCN1CCN(c2ccc(/N=N/c3cc(C(=O)OC)cc(C(=O)OC)c3)cc2)CC1` yielded an absorption maximum (in CCOC(C)=O) of 416 nm.
For `CC(C)(C)c1cc(-c2ccc(-c3cccs3)s2)c2c(c1)c1cc(C(C)(C)C)cc(-c3ccc(-c4cccs4)s3)c1n2-c1ccc(-c2cccs2)s1`, the absorption maximum (in ClCCl) was 340 nm.
Compound `Oc1cccc(-c2nc(-c3ccccc3)c(-c3ccccc3)[nH]2)c1` has an absorption maximum (in CO) of 300 nm.
`COc1ccc(/C=C/c2cc(/C=C/c3ccc(OC)cc3)nc(/C=C/c3ccc(C(F)(F)F)cc3)n2)cc1` gave an absorption maximum (in ClCCl) of 370 nm.
`O=C1C=C(Nc2ccc(F)c(F)c2)C(=O)c2ccccc21` showed an absorption maximum (in CO) of 454 nm.
Work on `c1cc2ccc1CCCc1ccc(c3nsnc13)CCC2` yielded an absorption maximum (in C1CCCCC1) of 378 nm, an absorption maximum (in CC#N) of 384 nm and an absorption maximum (in ClC(Cl)Cl) of 384 nm.
With `c1ccc(-c2nc(-c3ccccc3)nc(-c3ccc(-n4c5ccccc5c5cc(-c6ccc7sc8ccccc8c7c6)ccc54)cc3)n2)cc1` the absorption maximum (in Cc1ccccc1) was 370 nm.
With `CC1=N/C(=C\c2ccncc2)C(=O)N1C` the absorption maximum (in C1COCCO1) was 357 nm, the absorption maximum (in CC#N) was 356 nm and the absorption maximum (in CCO) was 351 nm. For the same compound, the absorption maximum (in CCOC(C)=O) was 353 nm and the absorption maximum (in O) was 347 nm.
`CC(C)c1ccc2ccc3cccc4ccc1c2c34` gave an absorption maximum (in CCCCCC) of 338 nm, an absorption maximum (in CO) of 337 nm and an absorption maximum (in ClCCl) of 340 nm.
With `CC[n+]1c(/C=C/c2c([O-])ccc3ccc(=O)oc23)sc2ccccc21` the absorption maximum (in C1CCOC1) was 607.14 nm, the absorption maximum (in CC#N) was 579.15 nm and the absorption maximum (in CC(C)=O) was 590.56 nm. The absorption maximum (in CO) was 519.07 nm, the absorption maximum (in CS(C)=O) was 581.28 nm and the absorption maximum (in Cc1ccccc1) was 623.57 nm. For the same compound, the absorption maximum (in ClC(Cl)Cl) was 593.91 nm, the absorption maximum (in ClCCl) was 597.56 nm and the absorption maximum (in O) was 492.76 nm.
Work on `N#Cc1c(N2CCCCC2)cc(-c2cccc3ccccc23)c2c1-c1ccccc1C2=O` yielded an absorption maximum (in C1CCOC1) of 390 nm.
For `COc1ccc(-c2ccc3c(c2)c2cc(-c4ccc(OC)cc4)ccc2n3-c2ccc(C(=O)c3ccc4sc5ccccc5c4c3)cc2)cc1`, the absorption maximum (in Cc1ccccc1) was 366 nm.
`CC[N+]1(CC)CN2C(=N1)C(C(=O)O)=Cc1cc(SC)ccc12` gave an absorption maximum (in O) of 397 nm.
In the case of `CC(C)(C)c1cc(C#Cc2ccc3c(C#Cc4cc(C(C)(C)C)cc(C(C)(C)C)c4)cc4c5cc(C#Cc6cc(C(C)(C)C)cc(C(C)(C)C)c6)ccc5c(C#Cc5cc(C(C)(C)C)cc(C(C)(C)C)c5)cc4c3c2)cc(C(C)(C)C)c1`, the absorption maximum (in ClCCl) is reported as 416 nm.
In the case of `C[Si](C)(C)c1ccc(-c2ccc(-c3ccc(-c4ccc(-c5ccc([Si](C)(C)C)s5)s4)c4nsnc34)s2)s1`, the absorption maximum (in C1CCOC1) is reported as 513 nm.
With `COc1ccc(-c2c3nc(cc4ccc([nH]4)c(-c4ccc(OC)c(OCC(=O)O)c4)c4nc(cc5ccc2[nH]5)C=C4)C=C3)cc1OCC(=O)O` the absorption maximum (in CS(C)=O) was 633 nm.
For `CCOC(=O)c1c(-c2c(Cl)c3cc(C)ccc3oc2=O)nn(-c2cccc(Cl)c2)c1C(=O)OCC`, the absorption maximum (in ClCCl) was 331 nm.
Compound `Cc1ccc(C2=Cc3c4ccccc4c4ccccc4[n+]3[B-](F)(F)O2)cc1` has an absorption maximum (in ClC(Cl)Cl) of 437 nm.
`c1ccc(-c2nc(-c3ccccc3)nc(-c3ccc(-n4c5ccc(-c6ccc7sc8ccccc8c7c6)cc5c5cc(-c6ccc7sc8ccccc8c7c6)ccc54)cc3)n2)cc1` showed an absorption maximum (in Cc1ccccc1) of 377 nm.
`COc1cc2c(cc1-c1ccc([N+](=O)[O-])cc1)Cc1c3c(c4c(c1-2)-c1cc(OC)c(-c2ccc([N+](=O)[O-])cc2)cc1C4)C(=O)N(CCC(C)C)C3=O` gave an absorption maximum (in C1CCOC1) of 409 nm.
`C(#Cc1ccccc1)C(C#Cc1ccccc1)=c1c2ccccc2c(=C(C#Cc2ccccc2)C#Cc2ccccc2)c2ccccc12` gave an absorption maximum (in ClC(Cl)Cl) of 540 nm.
`N#C/C(=C\c1cn(-c2ccccc2)nc1-c1ccccc1)c1nc2ccccc2s1` showed an absorption maximum (in C1CCOC1) of 381 nm, an absorption maximum (in C1COCCO1) of 381 nm and an absorption maximum (in CCO) of 380 nm. For the same compound, the absorption maximum (in CCOC(C)=O) was 380 nm, the absorption maximum (in CN(C)C=O) was 388 nm and the absorption maximum (in CO) was 377 nm. The absorption maximum (in CS(C)=O) was 382 nm, the absorption maximum (in Cc1ccccc1) was 387 nm and the absorption maximum (in ClC(Cl)Cl) was 383 nm. For the same compound, the absorption maximum (in ClCCl) was 380 nm.
For `CC1=N/C(=C\c2cc(N(C)C)ccc2C#N)C(=O)N1C`, the absorption maximum (in C1CCOC1) was 363 nm, the absorption maximum (in CC#N) was 361 nm and the absorption maximum (in CCCCCC) was 359 nm.
For `CCCCNc1ccc2n1[B-](F)(F)[N+]1=CC(/C=C/C(=O)OC(C)(C)C)=CC1=C2c1c(C)cc(C)cc1C`, the absorption maximum (in ClCCl) was 499 nm.
Work on `CCN(CC)c1ccc(-c2ccc(-c3nc(C#N)c4ccccc4n3)s2)cc1` yielded an absorption maximum (in CC#N) of 397 nm and an absorption maximum (in Cc1ccccc1) of 402 nm.
`COc1ccc(C2=C(c3ccc(OC)cc3)C(C)(C)c3ccccc32)cc1` gave an absorption maximum (in C1CCCCC1) of 283 nm.
Work on `CCCCCOc1cc2oc(=O)c3c4ccc(N)cc4c4ccc5cccc6c(c1)c2c3c4c56` yielded an absorption maximum (in C1CCOC1) of 471 nm.
Work on `Cc1cc(O)c(-c2[nH]c(=O)n3c2-c2ccccc2C3=O)cc1Cl` yielded an absorption maximum (in CC#N) of 393 nm, an absorption maximum (in CO) of 395 nm and an absorption maximum (in ClCCl) of 399 nm.
Compound `O=C1OC(=O)c2cc(Oc3ccccc3)c3c4ccc5c6c(cc(Oc7ccccc7)c(c7ccc1c2c73)c64)C(=O)OC5=O` has an absorption maximum (in C1CCOC1) of 516 nm, an absorption maximum (in CN1CCCC1=O) of 529 nm and an absorption maximum (in CN(C)C=O) of 530 nm.
`COc1nc(Nc2ccc3c4c(cccc24)C(=O)c2ccccc2-3)nc(OC)n1` gave an absorption maximum (in CC#N) of 413.91 nm, an absorption maximum (in CC(C)O) of 421.94 nm and an absorption maximum (in CCCCOCCCC) of 421.94 nm. The absorption maximum (in CCOC(C)=O) was 418.94 nm, the absorption maximum (in CO) was 419.99 nm and the absorption maximum (in Cc1ccccc1) was 426.99 nm.
For `C=C[Si](c1c2ccccc2cc2ccccc12)(c1c2ccccc2cc2ccccc12)c1c2ccccc2cc2ccccc12`, the absorption maximum (in ClC(Cl)Cl) was 404 nm.
For `CCC1=C(C)C2=C(C)c3cc(I)cn3[B-](F)(F)[N+]2=C1C`, the absorption maximum (in C1CCCCC1) was 517.5 nm, the absorption maximum (in CC(C)=O) was 502.5 nm and the absorption maximum (in CCO) was 506 nm. For the same compound, the absorption maximum (in CCOC(C)=O) was 504.5 nm, the absorption maximum (in CO) was 503.5 nm and the absorption maximum (in OCC(F)(F)F) was 499.5 nm.
`COc1cc(/C=C2\C=C(c3ccccc3)C=C2c2ccccc2)cc(OC)c1` showed an absorption maximum (in C1CCOC1) of 436 nm.
With `Cc1ccc(C)n1-c1ccc(N(C)C)cc1` the absorption maximum (in CC#N) was 306 nm and the absorption maximum (in CCCCCC) was 304 nm.
For `CCC1=C(CC)C(C)=[N+]2C1=Cc1c(C)c3cc4c(cc3n1[B-]2(F)F)=[N+]1C(=Cc2c(CC)c(CC)c(C)n2[B-]1(F)F)C=4C`, the absorption maximum (in ClC(Cl)Cl) was 692 nm.
`COc1ccccc1NC1=CC(=O)c2ccccc2C1=O` gave an absorption maximum (in CCCCCC) of 468 nm and an absorption maximum (in CO) of 476 nm.
For `c1ccc2c(c1)-c1ccccc1[Si]21c2ccccc2-c2cc3c(cc21)-c1ccccc1[Si]31c2ccccc2-c2ccccc21`, the absorption maximum (in ClCCl) was 329 nm.
With `COc1ccc(-c2nc(/C(C#N)=C/c3ccc(C#N)cc3)sc2-c2ccc(OC)cc2)cc1` the absorption maximum (in CC#N) was 407 nm.
Work on `CN(C)c1ccc(/C=C(\C#N)c2nc3ccccc3s2)cc1` yielded an absorption maximum (in C1CCCCC1) of 430 nm and an absorption maximum (in CO) of 450 nm.
